Test system: Huh7 cells xenografted onto CAM
Test: Huh7-xenografted CAM tumour model
Format: in vivo, chick
Settings: 10 µM final concentration on CAM; Huh7 xenograft
Method: Cancer cell xenograft onto chick chorioallantoic membrane (CAM), an in vivo tumour model, was used to evaluate anti-tumour efficacy of compounds. Fertilised chicken eggs purchased from Byeolbichon Farm (Gyeongbuk, South Korea) were incubated at 37 °C with 55% relative humidity. On day 9 of egg incubation (embryonic day 9, E9), a small hole was made in the shell over the air sac after the selection of bifurcated vessels. Another hole was made on the broadside using a needle by applying negative pressure from the wider part, creating false air sac. Using a grinding wheel (Dremel, Racine, WI), a small window (1 cm^2) was created in the eggshell above the false air sac. For generation of xenograft CAM tumour model, Huh7 cells (1.5 × 10^6 cells/CAM) were inoculated on the CAM with or without test drugs (10 µM final concentration). On day 13 of egg incubation (E13), tumour tissues attached to CAM were resected from the embryo and harvested. Photographs of tumour as well as blood vessel branches were taken using optical microscope (Olympus Corporation, Tokyo, Japan). Tumour tissues were weighted and the number of vessel branch points within the tumour region was counted.

CNC(=O)c1cc(Oc2c(C)nc(NC(=O)Nc3ccc(Cl)c(C(F)(F)F)c3)c(C)c2C)ccn1 [Compound 4, 4-((6–(3-(4-Chloro-3-(trifluoromethyl)phenyl)ureido)-2,4,5-trimethylpyridin-3-yl)oxy)-N-methylpicolinamide]
inhibitory effect on tumour weight: weaker than that of sorafenib

From article PMC8344761 (Journal of Enzyme Inhibition and Medicinal Chemistry, 2021)
